Test results as given in patent US6974837B2, “Compositions comprising sibutramine metabolites in combination with phosphodiesterase inhibitors” (Sepracor Inc., priority 1999, dated 2005).
Where two headings read alike, the source gives them in different places.

How the values were obtained:
[1] = molecular target: nonselective muscarinic receptor; test: Binding at the nonselective muscarinic receptor; design: species or system rat; conditions: for IC50: rat cerebral cortex
[2] = molecular target: human recombinant norepinephrine (NE) uptake site (Homo sapiens, UniProt P23975); test: Binding at the norepinephrine (NE) uptake site
human recombinant norepinephrine (NE) uptake site, sequence (P23975 whole entry): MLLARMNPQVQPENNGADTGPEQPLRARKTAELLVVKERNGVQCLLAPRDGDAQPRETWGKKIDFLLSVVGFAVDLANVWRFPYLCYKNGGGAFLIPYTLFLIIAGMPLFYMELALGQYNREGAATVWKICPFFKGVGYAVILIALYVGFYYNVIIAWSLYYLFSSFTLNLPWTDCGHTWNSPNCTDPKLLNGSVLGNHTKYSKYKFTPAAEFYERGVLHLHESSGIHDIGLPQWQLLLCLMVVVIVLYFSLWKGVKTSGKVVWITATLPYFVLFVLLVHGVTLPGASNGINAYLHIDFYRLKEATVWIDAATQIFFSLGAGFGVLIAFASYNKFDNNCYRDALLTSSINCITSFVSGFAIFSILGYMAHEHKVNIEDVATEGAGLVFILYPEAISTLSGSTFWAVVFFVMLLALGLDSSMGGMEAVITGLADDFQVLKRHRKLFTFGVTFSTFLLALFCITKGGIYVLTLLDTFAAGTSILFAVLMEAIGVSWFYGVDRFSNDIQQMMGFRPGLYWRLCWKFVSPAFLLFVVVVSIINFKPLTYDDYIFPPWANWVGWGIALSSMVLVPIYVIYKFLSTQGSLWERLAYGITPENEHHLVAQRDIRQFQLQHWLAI

[3] = molecular target: serotonin (5-HT) uptake site (Rattus norvegicus, UniProt P31652)
serotonin (5-HT) uptake site, sequence (P31652 whole entry): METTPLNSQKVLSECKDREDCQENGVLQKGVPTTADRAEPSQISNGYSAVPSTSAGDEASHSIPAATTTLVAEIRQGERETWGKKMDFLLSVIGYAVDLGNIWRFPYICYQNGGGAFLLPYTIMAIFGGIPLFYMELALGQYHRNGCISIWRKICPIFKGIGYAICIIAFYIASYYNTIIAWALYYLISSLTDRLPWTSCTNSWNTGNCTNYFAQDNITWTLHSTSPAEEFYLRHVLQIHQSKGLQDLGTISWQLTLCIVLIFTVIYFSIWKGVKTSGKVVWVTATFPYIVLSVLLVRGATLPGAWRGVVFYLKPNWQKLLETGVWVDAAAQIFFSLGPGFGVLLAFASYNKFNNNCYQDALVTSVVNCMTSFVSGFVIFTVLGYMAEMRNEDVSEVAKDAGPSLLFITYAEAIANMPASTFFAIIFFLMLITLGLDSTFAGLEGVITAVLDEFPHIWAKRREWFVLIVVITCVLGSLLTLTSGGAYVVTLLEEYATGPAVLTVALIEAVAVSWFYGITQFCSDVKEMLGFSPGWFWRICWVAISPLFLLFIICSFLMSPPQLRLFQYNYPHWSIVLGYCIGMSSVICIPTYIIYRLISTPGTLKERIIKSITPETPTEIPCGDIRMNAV

[4] = human recombinant NE uptake site, read-out: Binding IC50 NE Uptake

Row | SMILES | IC50 [1] [nM] | IC50 [2] [nM] | affinity / activity at muscarinic site (in words) [1] | NE uptake site binding / inhibition (in words) [2] | IC50 [2, 4] [nM] | 5-HT uptake site binding / inhibition (in words) [3]
1 | CN[C@@H](CC(C)C)C1(c2ccc(Cl)cc2)CCC1 [(S)-desMe] | 654 | 870 |  |  |  | 
2 | CC(C)C[C@@H](N)C1(c2ccc(Cl)cc2)CCC1 [(R)-didesMe] |  |  | negligible activity | potent inhibitors | 13 | potent inhibitors
3 | CNC(CC(C)C)C1(c2ccc(Cl)cc2)CCC1 (racemic) [(R/S)-desMe, 1-(4-chlorophenyl)-N-methyl-2-(2-methylpropyl)-cyclobutanamethamine] | 1170 | 10 |  |  |  | 
4 | CN1[C@@H]2CC[C@H]1C[C@@H](OC(=O)C(CO)c1ccccc1)C2 (stereo partly shown) [Atropine, reference compound] | 0.31 |  |  |  |  | 
5 | CN[C@H](CC(C)C)C1(c2ccc(Cl)cc2)CCC1 [(R)-desMe] |  |  | negligible activity | potent inhibitors | 4 | potent inhibitors
